Experimental data: patent publication US11866439B2, “Ion channel modulators” (Praxis Precision Medicines, Inc., priority 2018, dated 2024)

How the values were obtained:
Type in all cases: cell-based
[1] = target: T1, hNaV1.2-WT (Homo sapiens, UniProt Q99250); assay: Voltage step activated (peak) sodium current, PatchXpress, hNaV1.2-WT; conditions: HEK293, HEK-293, steps to 0 mV from half-inactivation holding potential, read-out: hNav1.2 Peak INa (percent inhibition)
T1 construct: expressed in transfected cells; host or cells: HEK-293
T1 sequence (Q99250 whole entry): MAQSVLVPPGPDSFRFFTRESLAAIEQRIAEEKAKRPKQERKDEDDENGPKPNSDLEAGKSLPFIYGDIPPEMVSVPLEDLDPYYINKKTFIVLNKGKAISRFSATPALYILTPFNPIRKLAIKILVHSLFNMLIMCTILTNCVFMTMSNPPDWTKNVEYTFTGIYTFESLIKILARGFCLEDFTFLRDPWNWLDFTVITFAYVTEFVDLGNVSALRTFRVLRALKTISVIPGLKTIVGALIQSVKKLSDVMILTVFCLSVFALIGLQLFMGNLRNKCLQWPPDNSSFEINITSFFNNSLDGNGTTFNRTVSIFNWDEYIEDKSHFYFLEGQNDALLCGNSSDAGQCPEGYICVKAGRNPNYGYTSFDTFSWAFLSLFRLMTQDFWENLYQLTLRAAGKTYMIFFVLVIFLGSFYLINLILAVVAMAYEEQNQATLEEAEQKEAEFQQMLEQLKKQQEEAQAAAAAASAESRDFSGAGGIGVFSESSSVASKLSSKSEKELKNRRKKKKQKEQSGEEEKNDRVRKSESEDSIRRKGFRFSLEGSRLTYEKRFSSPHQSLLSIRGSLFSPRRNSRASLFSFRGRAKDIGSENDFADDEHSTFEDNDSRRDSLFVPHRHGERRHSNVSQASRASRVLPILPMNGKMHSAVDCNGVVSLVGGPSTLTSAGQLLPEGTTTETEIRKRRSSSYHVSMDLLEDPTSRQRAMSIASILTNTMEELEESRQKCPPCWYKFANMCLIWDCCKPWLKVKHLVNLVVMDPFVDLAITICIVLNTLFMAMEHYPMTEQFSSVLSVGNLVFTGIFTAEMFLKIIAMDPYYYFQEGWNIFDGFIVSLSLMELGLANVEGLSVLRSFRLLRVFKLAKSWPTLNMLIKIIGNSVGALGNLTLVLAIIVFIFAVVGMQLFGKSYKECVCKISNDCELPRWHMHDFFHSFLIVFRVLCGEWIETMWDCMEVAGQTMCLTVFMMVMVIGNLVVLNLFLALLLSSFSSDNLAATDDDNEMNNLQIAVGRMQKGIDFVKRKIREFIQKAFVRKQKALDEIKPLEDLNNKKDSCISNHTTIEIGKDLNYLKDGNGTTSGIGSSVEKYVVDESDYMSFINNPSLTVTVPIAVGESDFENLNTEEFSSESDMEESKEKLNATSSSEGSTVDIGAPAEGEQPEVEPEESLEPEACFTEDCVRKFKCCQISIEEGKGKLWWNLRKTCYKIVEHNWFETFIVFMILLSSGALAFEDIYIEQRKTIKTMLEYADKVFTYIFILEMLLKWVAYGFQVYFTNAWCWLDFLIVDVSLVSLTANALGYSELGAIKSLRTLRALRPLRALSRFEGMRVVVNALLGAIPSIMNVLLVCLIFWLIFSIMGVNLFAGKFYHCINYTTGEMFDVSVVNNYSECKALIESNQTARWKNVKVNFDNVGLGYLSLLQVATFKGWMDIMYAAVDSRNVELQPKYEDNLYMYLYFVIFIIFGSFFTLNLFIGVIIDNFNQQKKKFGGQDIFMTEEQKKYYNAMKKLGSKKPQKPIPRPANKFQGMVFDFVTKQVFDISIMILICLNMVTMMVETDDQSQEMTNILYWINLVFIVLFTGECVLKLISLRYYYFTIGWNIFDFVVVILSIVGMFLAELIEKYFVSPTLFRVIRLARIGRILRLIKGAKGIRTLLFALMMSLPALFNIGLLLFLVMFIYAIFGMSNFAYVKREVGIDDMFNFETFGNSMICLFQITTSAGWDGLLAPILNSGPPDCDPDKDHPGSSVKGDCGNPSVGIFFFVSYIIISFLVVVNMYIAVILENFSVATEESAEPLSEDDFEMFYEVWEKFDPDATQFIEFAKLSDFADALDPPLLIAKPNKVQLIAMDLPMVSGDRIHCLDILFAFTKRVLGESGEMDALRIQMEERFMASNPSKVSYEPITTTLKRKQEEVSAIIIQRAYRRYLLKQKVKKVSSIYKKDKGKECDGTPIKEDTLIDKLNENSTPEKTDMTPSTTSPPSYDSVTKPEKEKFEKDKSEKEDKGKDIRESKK
Method: (§1) Functional characterization of exemplary compounds to modulate INa expressed by various human isoforms and disease-causing mutant voltage-gated sodium channels was accomplished using the PatchXpress high throughput electrophysiology platform (Molecular Devices, Sunnyvale, CA). HEK-293 cells expressing a recombinant, human NaV1.X sodium channel (either hNaV1.6-WT, hNaV1.6-R223G, hNaV1.6-N984K, hNaV1.6-N1768D, hNaV1.1-WT, hNaV1.2-WT, hNaV1.5-WT, hNaV1.7-WT, or hNaV1.8-WT) were grown in DMEM/high-glucose Dulbecco's modified, 10% FBS, 2 mM sodium pyruvate, 10 mM HEPES and 400 μg/mL G418. Cells were grown to 50%-80% confluency prior to harvesting. Trypsinized cells were washed, allowed to recover for 1 hour and then resuspended in extracellular recording solution at a concentration of 1×10^6 cells/ml. The onboard liquid handling facility of the PatchXpress was used for dispensing cells and applying test compounds. INa amplitude and stability were determined by analyzing the peak current amplitude.
(§2) Peak INa was evoked by depolarizing steps to 0 mV for 20 ms from a holding potential which evoked half-inactivation (e.g., −60 mV) at a frequency of 0.1 Hz. The voltage of half-inactivation was determined for each cell using a 5 sec prepulse to membrane potentials between −120 mV and −20 mV followed immediately by a voltage step to a fully activating membrane voltage (e.g., 0 mV). Following steady state block with exemplary compounds (e.g., as described herein), the degree of inhibition was measured using the average of three consecutive voltage steps. Percent steady-state inhibition of INa was calculated as: [(INa_compound)/(INa_control)]*100, where INa_compound and INa_control represent INa recorded in the presence or absence of compound, respectively.
(§3) In this table, “A” indicates inhibition between less than 0% to 50% and “B” indicates inhibition of greater than 50% and N/A indicates the compound was not tested.

[2] = target: T2, hNaV1.1-WT (Homo sapiens, UniProt P35498); assay: Voltage step activated (peak) sodium current, PatchXpress, hNaV1.1-WT; conditions: HEK293, HEK-293, steps to 0 mV from half-inactivation holding potential, read-out: hNav1.1 Peak INa (percent inhibition)
T2 construct: expressed in transfected cells; host or cells: HEK-293
Method: as §1, §2, §3

[3] = target: T3, human NaV1.6 (hNaV1.6) (Homo sapiens, UniProt Q9UQD0); assay: Late sodium current (INaL) inhibition, PatchXpress electrophysiology, hNaV1.6; conditions: 1 μM; HEK-293 cells expressing hNaV1.6; late current evoked by 300 nM ATX-II
T3 construct: expressed in transfected cells; host or cells: HEK-293
T3 sequence (Q9UQD0 whole entry): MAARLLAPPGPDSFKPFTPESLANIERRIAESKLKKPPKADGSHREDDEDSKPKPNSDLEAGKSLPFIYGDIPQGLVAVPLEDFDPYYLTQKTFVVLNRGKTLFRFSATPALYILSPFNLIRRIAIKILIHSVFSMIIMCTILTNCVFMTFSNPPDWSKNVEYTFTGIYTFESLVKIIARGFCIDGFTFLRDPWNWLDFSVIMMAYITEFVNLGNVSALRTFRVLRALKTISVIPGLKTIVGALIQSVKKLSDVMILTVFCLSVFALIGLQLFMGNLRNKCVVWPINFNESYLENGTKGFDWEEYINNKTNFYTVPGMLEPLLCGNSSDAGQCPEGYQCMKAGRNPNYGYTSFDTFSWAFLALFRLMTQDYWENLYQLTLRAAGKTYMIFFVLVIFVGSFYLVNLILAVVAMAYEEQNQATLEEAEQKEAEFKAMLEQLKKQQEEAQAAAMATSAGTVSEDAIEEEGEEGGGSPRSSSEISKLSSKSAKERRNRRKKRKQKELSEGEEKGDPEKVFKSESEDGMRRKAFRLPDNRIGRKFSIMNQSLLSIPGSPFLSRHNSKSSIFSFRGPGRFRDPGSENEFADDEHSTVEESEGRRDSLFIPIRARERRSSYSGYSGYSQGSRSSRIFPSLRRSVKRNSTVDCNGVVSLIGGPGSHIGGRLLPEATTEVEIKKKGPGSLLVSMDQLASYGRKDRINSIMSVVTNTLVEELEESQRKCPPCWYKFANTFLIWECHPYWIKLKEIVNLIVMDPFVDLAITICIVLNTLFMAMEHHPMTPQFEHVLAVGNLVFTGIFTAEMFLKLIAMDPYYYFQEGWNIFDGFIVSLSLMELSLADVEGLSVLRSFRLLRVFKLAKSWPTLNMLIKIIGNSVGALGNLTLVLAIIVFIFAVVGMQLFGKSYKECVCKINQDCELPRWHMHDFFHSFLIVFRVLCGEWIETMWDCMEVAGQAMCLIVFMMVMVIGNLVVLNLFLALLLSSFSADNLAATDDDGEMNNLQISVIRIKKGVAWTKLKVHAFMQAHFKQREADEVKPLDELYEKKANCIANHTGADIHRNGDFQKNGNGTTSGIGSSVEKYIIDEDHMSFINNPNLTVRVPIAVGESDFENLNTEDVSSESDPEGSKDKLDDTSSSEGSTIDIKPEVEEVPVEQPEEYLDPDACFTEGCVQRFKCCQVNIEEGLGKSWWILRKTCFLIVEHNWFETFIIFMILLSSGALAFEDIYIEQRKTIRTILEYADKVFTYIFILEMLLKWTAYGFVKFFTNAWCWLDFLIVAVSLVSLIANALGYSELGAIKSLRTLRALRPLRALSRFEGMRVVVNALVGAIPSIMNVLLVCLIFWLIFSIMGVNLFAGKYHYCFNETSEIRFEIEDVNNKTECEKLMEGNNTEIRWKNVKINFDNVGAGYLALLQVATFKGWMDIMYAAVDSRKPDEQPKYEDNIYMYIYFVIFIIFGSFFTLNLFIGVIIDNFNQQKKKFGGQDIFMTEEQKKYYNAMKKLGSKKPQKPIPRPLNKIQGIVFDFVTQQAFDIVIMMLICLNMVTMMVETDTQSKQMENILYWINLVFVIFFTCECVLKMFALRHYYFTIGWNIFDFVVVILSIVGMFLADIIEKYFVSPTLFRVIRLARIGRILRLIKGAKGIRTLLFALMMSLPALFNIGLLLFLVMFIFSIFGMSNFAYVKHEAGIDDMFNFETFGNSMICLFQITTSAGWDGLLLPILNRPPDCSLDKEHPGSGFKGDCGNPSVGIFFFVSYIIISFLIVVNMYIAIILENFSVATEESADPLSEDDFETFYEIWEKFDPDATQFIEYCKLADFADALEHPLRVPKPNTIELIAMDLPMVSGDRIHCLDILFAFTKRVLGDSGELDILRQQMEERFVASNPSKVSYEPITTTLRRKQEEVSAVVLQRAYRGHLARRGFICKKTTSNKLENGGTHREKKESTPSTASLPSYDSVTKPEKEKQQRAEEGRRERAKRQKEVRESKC
Method: HEK-293 cells expressing recombinant, human NaV1.6 (hNaV1.6) were grown in DMEM/high-glucose Dulbecco's modified, 10% FBS, 2 mM sodium pyruvate, 10 mM HEPES and 400 μg/mL G418. Cells were grown to 50%-80% confluency prior to harvesting. […] The onboard liquid handling facility of the PatchXpress was used for dispensing cells and applying test compounds. […] INaL was evoked by depolarizing pulses to 0 mV for 200 ms from a non-inactivating holding potential (e.g., −120 mV) at a frequency of 0.1 Hz. INaL amplitude and stability were determined by analyzing the mean current amplitude over the final 20 ms of the test pulse. […] Percent steady-state inhibition of INaL was calculated as: [(INaL_compound)/(INaL_control)]*100, where INaL_compound and INaL_control represent INaL recorded in the presence or absence of compound, respectively.

| SMILES | inhibition at 1 µM [1] [%] | inhibition at 1 µM [2] [%] | NaV 1.6 Assay Data (percent inhibition of INaL at hNaV1.6) [3] |
| --- | --- | --- | --- |
| COC(F)(F)c1nnc2cnc(-c3cnc(O[C@@H](C)C(F)(F)F)c(F)c3)cn12 [Compound 6B, 3-[difluoro(methoxy)methyl]-6-[5-fluoro-6-[(1S)-2,2,2-trifluoro-1-methyl-ethoxy]-3-pyridyl]-[1,2,4]triazolo[4,3-a]pyrazine] | > 50 | > 50 |  |
| COC(F)(F)c1nnc2cnc(-c3cnc(OCC(F)(F)F)c(F)c3)cn12 [Compound 53, 3-[difluoro(methoxy)methyl]-6-[5-fluoro-6-(2,2,2-trifluoroethoxy)-3-pyridyl]-[1,2,4]triazolo[4,3-a]pyrazine] | < 50 | > 50 |  |
| COC(F)(F)c1nnc2cnc(-c3ccc(OC4(C(F)(F)F)CCC4)nc3)cn12 [Compound 57] |  |  | C (“C” indicates inhibition of greater than 70%) |
| CCOC(F)(F)c1nnc2cnc(-c3cnc(OCC(F)(F)F)c(F)c3)cn12 [Compound 10] | < 50 | > 50 |  |
| CCOC(F)(F)c1nnc2ccc(-c3cnc(OCC(F)(F)F)c(F)c3)cn12 [Compound 3, 3-[ethoxy(difluoro)methyl]-6-[5-fluoro-6-(2,2,2-trifluoroethoxy)-3-pyridyl]-[1,2,4]triazolo[4,3-a]pyridine] |  | > 50 |  |
| COC(F)(F)c1nnc2cnc(-c3cnc(OC4(C(F)(F)F)CCC4)c(F)c3)cn12 [Compound 11, 3-[difluoro(methoxy)methyl]-6-[5-fluoro-6-[1-(trifluoromethyl)cyclobutoxy]-3-pyridyl]-[1,2,4]triazolo[4,3-a]pyrazine] |  | > 50 |  |

More lines, main results first:

| inhibition at 1 µM [1] [%] | inhibition at 1 µM [2] [%] | SMILES | NaV 1.6 Assay Data (percent inhibition of INaL at hNaV1.6) [3] |
| --- | --- | --- | --- |
| > 50 | > 50 | COC(F)(F)c1nnc2cnc(-c3ccc(O[C@H](C)C(F)(F)F)nc3)cn12 [Compound 62, 3-[difluoro(methoxy)methyl]-6-[6-[(1R)-2,2,2-trifluoro-1-methyl-ethoxy]-3-pyridyl]-[1,2,4]triazolo[4,3-a]pyrazine] |  |
| > 50 | > 50 | COC(F)(F)c1nnc2cnc(-c3ccc(O[C@@H](C)C(F)(F)F)nc3)cn12 [Compound 59, 3-[difluoro(methoxy)methyl]-6-[6-[(1S)-2,2,2-trifluoro-1-methyl-ethoxy]-3-pyridyl]-[1,2,4]triazolo[4,3-a]pyrazine] |  |
| > 50 | > 50 | COC(F)(F)c1nnc2cnc(-c3ccc(OC(C)(C)C(F)(F)F)nc3)cn12 [Compound 56, 3-[difluoro(methoxy)methyl]-6-[6-(2,2,2-trifluoro-1,1-dimethyl-ethoxy)-3-pyridyl]-[1,2,4]triazolo[4,3-a]pyrazine] |  |
